Active and inactive are the calls of the source. Rule as the data show it, for most assays here: actives have a measured IC50 and inactives only a lower limit.
Tests used:
Format in all cases: functional
[1] = molecular target: Ras and Rab interactor 1/Tyrosine-protein kinase ABL1 (Homo sapiens, UniProt P00519+Q13671);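 also: biochemical TR-FRET dose-response test measuring inhibition of binding between Rin1 and Abl proteins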
[2] = molecular target: T1, Sentrin-specific protease 7 (Homo sapiens, UniProt Q9BQF6); experiment: inhibition of human SENP7 cleavage activity – biochemical, luminescence, set 2, SAR follow-up (AID 588600)
T1 sequence (Q9BQF6 whole entry): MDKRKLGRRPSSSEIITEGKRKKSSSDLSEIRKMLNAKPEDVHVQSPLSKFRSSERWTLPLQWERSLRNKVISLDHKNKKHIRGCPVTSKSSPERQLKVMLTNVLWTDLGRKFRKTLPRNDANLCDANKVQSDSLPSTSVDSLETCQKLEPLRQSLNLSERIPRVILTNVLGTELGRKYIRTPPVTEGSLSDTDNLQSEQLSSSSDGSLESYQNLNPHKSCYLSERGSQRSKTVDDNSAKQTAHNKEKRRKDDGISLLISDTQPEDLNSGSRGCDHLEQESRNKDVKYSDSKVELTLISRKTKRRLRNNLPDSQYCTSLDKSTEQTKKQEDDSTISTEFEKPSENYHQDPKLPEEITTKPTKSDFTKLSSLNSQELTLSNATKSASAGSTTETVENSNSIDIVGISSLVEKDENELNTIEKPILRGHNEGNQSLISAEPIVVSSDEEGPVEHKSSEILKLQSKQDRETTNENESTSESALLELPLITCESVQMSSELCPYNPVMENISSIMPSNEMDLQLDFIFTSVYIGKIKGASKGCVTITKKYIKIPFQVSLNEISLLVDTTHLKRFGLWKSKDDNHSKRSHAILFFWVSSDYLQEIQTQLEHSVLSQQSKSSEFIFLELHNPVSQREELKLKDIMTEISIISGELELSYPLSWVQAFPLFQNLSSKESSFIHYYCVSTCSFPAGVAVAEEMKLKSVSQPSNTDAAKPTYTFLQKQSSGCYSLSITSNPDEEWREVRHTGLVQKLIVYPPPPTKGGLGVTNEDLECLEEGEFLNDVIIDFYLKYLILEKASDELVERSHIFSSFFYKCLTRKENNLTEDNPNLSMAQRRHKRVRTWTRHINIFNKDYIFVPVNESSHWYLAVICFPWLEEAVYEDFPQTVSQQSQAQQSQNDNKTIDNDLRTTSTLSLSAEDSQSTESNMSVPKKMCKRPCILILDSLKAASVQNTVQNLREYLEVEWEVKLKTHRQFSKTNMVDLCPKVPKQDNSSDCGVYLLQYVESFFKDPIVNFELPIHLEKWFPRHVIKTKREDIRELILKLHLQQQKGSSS

[3] = molecular target: T2, Sentrin-specific protease 6 (Homo sapiens, UniProt Q9GZR1); experiment: SAR Analysis of small molecule inhibitors of Sentrin-specific protease 6 (SENP6) using a Luminescent assay. [Related pubchem assays (depositor defined):AID2582, AID2599]
T2 sequence (Q9GZR1 whole entry): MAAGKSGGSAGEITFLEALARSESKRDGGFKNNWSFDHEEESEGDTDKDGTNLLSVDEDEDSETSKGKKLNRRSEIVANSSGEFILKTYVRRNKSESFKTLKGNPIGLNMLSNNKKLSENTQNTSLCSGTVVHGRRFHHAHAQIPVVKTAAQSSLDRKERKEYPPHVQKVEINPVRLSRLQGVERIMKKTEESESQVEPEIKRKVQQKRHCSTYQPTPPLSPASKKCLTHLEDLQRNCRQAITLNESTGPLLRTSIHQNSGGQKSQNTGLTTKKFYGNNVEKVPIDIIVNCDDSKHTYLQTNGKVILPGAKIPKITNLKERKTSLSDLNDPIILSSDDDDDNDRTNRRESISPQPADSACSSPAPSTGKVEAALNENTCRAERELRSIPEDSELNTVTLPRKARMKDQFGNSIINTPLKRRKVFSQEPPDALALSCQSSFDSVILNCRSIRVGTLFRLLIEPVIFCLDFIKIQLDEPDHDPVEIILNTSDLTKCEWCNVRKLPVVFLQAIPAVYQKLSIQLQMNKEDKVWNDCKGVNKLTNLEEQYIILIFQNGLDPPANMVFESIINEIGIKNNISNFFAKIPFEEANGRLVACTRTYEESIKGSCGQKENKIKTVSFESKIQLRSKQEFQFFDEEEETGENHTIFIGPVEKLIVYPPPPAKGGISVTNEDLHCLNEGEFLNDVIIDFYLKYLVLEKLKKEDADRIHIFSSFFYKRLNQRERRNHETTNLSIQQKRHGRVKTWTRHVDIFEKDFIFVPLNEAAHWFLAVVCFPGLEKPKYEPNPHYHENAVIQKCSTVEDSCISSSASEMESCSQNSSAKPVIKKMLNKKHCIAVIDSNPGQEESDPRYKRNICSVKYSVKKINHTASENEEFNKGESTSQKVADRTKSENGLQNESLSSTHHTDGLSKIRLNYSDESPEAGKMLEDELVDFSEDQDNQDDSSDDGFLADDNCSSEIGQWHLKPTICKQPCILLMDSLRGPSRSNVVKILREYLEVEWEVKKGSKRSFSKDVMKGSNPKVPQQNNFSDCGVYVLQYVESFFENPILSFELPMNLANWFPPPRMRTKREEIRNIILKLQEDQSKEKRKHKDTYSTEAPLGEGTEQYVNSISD

Caspase-3 [4] = molecular target: T3, Caspase-3 (Homo sapiens, UniProt P42574); experiment: inhibition of recombinant caspase-3 activity – biochemical, luminescence, set 2, selectivity assay for SENP protease inhibitor project, SAR follow-up (AID 588599)
T3 sequence (P42574 whole entry): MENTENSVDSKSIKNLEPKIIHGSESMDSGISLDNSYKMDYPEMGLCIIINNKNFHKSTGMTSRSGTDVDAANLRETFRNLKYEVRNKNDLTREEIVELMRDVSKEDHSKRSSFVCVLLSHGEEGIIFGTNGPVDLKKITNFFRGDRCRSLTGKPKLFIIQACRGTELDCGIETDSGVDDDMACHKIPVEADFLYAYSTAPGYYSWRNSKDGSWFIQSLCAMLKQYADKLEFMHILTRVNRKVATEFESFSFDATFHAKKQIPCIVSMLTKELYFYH

[5] = molecular target: T2, Sentrin-specific protease 6; experiment: inhibition of human SENP6 catalytic domain – biochemical, luminescence, set 2, SAR follow-up (AID 588598)
[6] = molecular target: T4, Sentrin-specific protease 8 (Homo sapiens, UniProt Q96LD8); experiment: inhibition of sentrin protease 8 – biochemical, luminescence, set 2, SAR follow-up (AID 588601)
T4 sequence (Q96LD8 whole entry): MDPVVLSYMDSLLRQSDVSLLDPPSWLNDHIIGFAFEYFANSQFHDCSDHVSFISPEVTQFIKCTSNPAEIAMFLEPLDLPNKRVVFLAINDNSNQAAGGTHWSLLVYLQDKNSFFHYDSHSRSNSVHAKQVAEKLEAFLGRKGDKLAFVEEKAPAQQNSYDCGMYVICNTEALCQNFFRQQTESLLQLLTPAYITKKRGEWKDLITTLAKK

[7] = molecular target: T1, Sentrin-specific protease 7; experiment: inhibition of human SENP7 cleavage activity – biochemical, luminescence, SAR follow-up (AID 504497)
Caspase-3 [8] = molecular target: T3, Caspase-3; experiment: SAR Analysis of small molecule inhibitors of Sentrin-specific proteases (SENPs) using a Caspase-3 Selectivity assay. [Related pubchem assays (depositor defined):AID2540, AID2599, AID434973, AID489001]
[9] = molecular target: T4, Sentrin-specific protease 8; experiment: inhibition of human SENP8 cleavage activity – biochemical, luminescence, SAR follow-up (AID 504501)
Aurora kinase B = Aurora kinase B (Homo sapiens, UniProt Q96GD4)
Aurora kinase B, sequence (Q96GD4 whole entry): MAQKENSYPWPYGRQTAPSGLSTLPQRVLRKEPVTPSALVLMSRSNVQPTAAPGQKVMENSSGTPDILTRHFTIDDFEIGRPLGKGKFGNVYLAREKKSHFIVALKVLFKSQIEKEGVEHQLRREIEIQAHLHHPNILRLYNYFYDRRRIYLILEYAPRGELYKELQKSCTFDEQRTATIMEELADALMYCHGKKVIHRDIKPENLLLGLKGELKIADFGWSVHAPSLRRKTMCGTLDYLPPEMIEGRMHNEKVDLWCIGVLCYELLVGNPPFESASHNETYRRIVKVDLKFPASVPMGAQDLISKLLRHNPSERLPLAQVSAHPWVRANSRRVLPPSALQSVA

[10] = molecular target: Vascular endothelial growth factor receptor 2 (Homo sapiens, UniProt P35968)
Vascular endothelial growth factor receptor 2, sequence (P35968 whole entry): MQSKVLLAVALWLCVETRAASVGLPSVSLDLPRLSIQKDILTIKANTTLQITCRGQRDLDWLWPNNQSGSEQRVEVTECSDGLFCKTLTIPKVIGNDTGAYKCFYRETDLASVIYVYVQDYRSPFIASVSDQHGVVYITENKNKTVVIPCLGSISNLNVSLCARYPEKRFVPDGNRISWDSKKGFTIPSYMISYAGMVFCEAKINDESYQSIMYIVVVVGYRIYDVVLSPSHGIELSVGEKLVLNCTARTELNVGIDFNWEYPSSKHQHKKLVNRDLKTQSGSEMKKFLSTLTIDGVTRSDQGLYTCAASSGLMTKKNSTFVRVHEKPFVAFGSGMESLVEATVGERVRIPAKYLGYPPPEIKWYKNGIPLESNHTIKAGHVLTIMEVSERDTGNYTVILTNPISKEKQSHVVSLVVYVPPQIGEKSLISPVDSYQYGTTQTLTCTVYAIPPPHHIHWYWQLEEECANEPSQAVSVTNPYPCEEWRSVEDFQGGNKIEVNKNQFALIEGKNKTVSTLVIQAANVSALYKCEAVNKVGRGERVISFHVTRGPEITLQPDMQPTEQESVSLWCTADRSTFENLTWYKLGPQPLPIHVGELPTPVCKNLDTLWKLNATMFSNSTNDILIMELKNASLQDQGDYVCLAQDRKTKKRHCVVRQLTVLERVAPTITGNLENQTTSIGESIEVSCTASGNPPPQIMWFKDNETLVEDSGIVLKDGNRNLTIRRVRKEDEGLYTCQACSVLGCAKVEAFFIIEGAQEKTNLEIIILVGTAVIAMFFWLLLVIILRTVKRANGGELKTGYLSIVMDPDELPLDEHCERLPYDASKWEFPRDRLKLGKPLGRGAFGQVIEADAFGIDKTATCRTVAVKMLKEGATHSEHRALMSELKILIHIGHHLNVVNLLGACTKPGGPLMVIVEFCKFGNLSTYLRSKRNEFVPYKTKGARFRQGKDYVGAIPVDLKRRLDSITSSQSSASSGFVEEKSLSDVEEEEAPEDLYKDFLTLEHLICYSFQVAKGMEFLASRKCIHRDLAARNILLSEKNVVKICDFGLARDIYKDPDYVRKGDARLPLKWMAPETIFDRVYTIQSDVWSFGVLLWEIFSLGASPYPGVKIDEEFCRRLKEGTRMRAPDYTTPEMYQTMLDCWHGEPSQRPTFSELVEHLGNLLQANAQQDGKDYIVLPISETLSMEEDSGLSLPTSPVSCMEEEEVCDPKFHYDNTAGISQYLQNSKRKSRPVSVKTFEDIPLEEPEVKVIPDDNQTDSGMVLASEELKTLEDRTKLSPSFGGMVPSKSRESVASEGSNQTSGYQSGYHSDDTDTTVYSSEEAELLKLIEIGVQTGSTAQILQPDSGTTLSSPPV

Aurora kinase A = molecular target: T5, Aurora kinase A (Homo sapiens, UniProt O14965);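 also: value from the Navigating the Kinome kinase panel profiling, panel entry STK6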
T5 sequence (O14965 whole entry): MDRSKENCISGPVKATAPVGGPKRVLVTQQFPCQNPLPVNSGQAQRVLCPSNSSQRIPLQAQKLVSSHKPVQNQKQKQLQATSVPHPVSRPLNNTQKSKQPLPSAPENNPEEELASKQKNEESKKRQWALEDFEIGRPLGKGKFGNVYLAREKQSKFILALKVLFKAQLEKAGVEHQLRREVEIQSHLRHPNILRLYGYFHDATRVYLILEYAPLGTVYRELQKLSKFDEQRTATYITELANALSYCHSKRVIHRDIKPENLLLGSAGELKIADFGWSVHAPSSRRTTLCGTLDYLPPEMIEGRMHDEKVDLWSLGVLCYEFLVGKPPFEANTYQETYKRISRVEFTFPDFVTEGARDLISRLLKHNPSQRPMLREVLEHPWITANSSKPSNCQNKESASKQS

[11] = M. tuberculosis H37Rv growth inhibitors, H37Rv strain (AID 1626)
[12] = molecular target: T6, Mitochondrial peptide methionine sulfoxide reductase (Bos taurus, UniProt P54149); experiment: Absorbance-based biochemical high throughput dose response assay for activators of Methionine sulfoxide reductase A (MsrA).
T6 sequence (P54149 whole entry): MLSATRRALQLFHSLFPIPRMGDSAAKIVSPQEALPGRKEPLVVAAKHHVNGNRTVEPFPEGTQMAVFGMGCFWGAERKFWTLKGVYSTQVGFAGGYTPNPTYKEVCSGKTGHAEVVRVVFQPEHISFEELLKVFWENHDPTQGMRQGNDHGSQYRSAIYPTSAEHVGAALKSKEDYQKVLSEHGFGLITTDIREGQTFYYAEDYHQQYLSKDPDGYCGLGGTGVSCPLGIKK

[13] = molecular target: T7, Apoptotic protease-activating factor 1 (Homo sapiens, UniProt O14727); experiment: SAR analysis of small molecule Activators of Apaf-1 in a Fluorescent assay.; conditions: read-out: EC50_Mean;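 also: caspase-3 cleavage of fluorogenic Rh110 DEVD substrate downstream of apoptosome activation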
T7 sequence (O14727 whole entry): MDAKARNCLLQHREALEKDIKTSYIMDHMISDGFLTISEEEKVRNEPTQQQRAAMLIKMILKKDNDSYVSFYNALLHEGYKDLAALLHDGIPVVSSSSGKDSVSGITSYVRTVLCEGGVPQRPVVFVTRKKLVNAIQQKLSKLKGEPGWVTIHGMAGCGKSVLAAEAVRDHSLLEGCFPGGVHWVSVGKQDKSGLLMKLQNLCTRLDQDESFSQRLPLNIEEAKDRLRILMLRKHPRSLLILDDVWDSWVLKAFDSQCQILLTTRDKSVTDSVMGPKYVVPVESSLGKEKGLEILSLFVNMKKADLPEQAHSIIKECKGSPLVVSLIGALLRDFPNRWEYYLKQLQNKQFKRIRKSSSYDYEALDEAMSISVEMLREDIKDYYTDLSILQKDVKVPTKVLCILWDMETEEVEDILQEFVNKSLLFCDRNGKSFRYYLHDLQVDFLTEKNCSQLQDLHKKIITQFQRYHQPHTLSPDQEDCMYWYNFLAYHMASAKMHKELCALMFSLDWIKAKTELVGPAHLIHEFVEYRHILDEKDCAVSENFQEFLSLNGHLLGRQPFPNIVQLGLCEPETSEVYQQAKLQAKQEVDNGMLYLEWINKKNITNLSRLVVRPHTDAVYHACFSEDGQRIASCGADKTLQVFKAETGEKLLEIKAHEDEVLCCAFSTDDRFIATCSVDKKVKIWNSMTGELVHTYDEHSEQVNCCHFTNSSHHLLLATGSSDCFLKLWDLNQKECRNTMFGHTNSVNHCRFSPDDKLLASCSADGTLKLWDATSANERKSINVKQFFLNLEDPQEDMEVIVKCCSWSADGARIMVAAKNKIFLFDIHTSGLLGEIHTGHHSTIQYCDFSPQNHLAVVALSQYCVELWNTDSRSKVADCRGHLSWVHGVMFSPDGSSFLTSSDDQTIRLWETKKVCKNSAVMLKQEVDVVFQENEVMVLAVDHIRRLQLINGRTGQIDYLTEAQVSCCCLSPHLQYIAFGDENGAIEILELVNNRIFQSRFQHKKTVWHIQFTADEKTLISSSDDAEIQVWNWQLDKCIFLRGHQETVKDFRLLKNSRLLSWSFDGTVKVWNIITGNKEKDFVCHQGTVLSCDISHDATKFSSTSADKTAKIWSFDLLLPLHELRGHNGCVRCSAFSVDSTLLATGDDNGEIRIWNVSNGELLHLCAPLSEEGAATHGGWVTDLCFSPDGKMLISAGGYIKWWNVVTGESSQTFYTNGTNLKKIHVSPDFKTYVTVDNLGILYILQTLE

Ras and Rab interactor 1/Tyrosine-protein kinase ABL1, sequence (P00519 whole entry): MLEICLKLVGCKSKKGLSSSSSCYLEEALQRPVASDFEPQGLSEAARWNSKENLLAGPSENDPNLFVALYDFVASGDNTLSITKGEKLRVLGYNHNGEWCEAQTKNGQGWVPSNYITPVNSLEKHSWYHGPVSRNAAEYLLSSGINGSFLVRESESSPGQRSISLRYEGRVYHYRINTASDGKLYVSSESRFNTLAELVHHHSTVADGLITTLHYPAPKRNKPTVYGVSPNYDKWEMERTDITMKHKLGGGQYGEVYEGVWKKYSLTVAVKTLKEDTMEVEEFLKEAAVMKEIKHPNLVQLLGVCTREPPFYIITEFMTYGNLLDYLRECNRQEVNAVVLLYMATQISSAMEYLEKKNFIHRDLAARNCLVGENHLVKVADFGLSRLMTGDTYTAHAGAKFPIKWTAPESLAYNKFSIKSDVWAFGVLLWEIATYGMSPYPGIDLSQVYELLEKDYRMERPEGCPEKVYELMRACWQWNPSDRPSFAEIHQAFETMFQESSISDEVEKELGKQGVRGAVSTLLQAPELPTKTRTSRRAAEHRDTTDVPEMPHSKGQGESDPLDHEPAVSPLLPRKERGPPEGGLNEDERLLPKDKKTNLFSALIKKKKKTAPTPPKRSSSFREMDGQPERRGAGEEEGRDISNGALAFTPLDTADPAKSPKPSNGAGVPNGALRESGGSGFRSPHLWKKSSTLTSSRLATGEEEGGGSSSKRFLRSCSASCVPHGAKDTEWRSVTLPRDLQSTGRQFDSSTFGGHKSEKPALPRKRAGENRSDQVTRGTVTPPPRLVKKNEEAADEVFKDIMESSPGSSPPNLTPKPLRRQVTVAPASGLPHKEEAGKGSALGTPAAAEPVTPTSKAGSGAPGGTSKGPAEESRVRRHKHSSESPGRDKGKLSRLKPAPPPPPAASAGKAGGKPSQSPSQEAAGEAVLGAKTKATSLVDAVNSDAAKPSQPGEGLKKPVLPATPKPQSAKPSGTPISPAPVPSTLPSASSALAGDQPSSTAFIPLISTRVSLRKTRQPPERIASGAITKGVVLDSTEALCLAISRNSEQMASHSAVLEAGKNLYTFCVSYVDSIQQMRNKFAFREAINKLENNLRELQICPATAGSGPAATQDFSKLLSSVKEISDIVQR
Ras and Rab interactor 1/Tyrosine-protein kinase ABL1, sequence (Q13671 whole entry): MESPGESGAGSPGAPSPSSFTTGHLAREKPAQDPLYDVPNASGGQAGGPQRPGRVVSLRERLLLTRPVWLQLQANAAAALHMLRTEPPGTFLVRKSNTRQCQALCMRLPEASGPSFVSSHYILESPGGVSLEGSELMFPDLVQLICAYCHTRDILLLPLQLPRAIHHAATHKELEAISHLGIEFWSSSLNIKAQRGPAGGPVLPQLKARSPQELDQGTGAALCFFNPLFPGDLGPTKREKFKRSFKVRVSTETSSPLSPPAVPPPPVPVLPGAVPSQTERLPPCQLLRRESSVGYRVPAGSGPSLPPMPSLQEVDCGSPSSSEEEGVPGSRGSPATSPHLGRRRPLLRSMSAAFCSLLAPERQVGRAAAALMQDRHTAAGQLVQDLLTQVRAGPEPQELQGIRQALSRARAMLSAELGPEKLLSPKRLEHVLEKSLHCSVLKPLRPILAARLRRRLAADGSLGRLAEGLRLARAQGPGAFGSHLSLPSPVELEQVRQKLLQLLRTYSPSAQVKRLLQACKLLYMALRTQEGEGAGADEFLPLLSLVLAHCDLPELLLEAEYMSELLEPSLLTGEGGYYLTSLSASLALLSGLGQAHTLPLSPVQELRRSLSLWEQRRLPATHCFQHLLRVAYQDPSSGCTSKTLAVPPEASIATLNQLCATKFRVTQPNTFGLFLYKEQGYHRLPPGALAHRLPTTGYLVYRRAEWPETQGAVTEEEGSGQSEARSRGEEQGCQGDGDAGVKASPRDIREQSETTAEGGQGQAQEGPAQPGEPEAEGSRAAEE

SMILES: CCC(C)(C)n1nnnc1C(c1cccnc1)N1CCCc2ccccc21 (stereo not drawn)
- IC50 [1]: 6.9 µM (active)

SMILES: O=C(Nc1nc2ccc(Cl)cc2s1)c1sccc1Cl
- IC50 [2]: 6.06 µM (active)
- IC50 [3]: 0.78 µM (active)
- IC50 (Caspase-3 [4]): 0.755 µM (active)
- IC50 [5]: 15.4 µM (active)
- IC50 [6]: 9.04 µM (active)
- IC50 [7]: 0.91 µM (active)
- IC50 (Caspase-3 [8]): 0.73 µM (active)
- IC50 [9]: 0.77 µM (active)

SMILES: CCCS(=O)(=O)Nc1ccc2c(c1)C(=NO)c1ccccc1-2
- Ki (Aurora kinase B): 0.01 µM (active)
- Ki [10]: 1 µM (active)
- Ki (Aurora kinase A): 2 µM (active)

SMILES: CCOc1ccc(NC(C(=O)Nc2cccc(C(C)=O)c2)c2ccccc2)cc1 (stereo not drawn)
- IC50 [11]: > 100 µM (active)
- EC50 [12]: > 104 µM (inactive)

SMILES: COc1cc(N2CC(C(=O)O)CC2=O)c(OC)cc1Cl (stereo not drawn)
- EC50 [13]: > 100 µM (inactive)

SMILES: CN(C)S(=O)(=O)c1ccc2nc(NC(=O)c3c(F)cccc3F)sc2c1
- IC50 [3]: > 99 µM (inactive)
- IC50 [7]: > 99 µM (inactive)
- IC50 (Caspase-3 [8]): > 99 µM (inactive)
- IC50 [9]: > 99 µM (inactive)

SMILES: O=C(N/N=C\c1c[nH]c2ccccc12)c1cccs1
- IC50 [2]: 34.4 µM (active)
- IC50 (Caspase-3 [4]): 75.5 µM (active)
- IC50 [5]: 43.3 µM (active)
- IC50 [6]: 40.8 µM (active)

Reference: ChEMBL document CHEMBL1201862, “PubChem BioAssay data set” (2004)
